Experimental data published in publication PMC5438648, “Identifying the structure-activity relationship of leelamine necessary for inhibiting intracellular cholesterol transport” (Oncotarget, 2017).
Like-named read-outs stand apart in the source and are kept apart here.

Tests used:
[1] = test system: normal human fibroblast cell line FF2441; assay: MTS cell viability assay, normal fibroblasts; type: cell-based; settings: 72 hours treatment, read-out: Melanoma cell killing efficacy (IC50 values) FF2441 (Normal Cells)
Description: (§1) Dr. Craig Myers, Penn State College of Medicine, Hershey, PA provided normal human fibroblast cell line FF2441. Mutant V600E-BRAF human melanoma cell line 1205 Lu was provided by Dr. Herlyn; Wistar Institute, Philadelphia, PA and UACC 903 was provided by Dr. Mark Nelson; University of Arizona, Tucson, AZ. Cell lines were maintained in a 37°C humidified 5% CO2 atmosphere incubator and periodically monitored for phenotypic, genotypic characteristics, and tumorigenic potential to validate and confirm cell line identity.
(§2) In brief, 5 × 10^3 cells per well in 100 μL of media were seeded and grown in a 96-well plate for 48 to 72 hours and treated with either DMSO vehicle control or 0.62 to 100 μmol/L of compounds for 72 hours. IC50 values for each compound in μmol/L for respective cell lines were measured from three independent experiments using GraphPad Prism version 4.01 (GraphPad Software, La Jolla, CA). In addition, recovery and viability assessment was also measured with these compounds co-treated simultaneously with 10 nmol/L of bafilomycin A1 (BafA1) or 1 mMol/L β-cyclodextrin and the viability was measured using the MTS assay after 24 hours.

UACC 903 melanoma cells [2] = assay: MTS cell viability assay, UACC 903 melanoma cells; type: cell-based, human; settings: 72 hours treatment, read-out: Melanoma cell killing efficacy (IC50 values) UACC 903 (Melanoma cells)
Description: as §1, §2

1205 Lu melanoma cells = assay: MTS cell viability assay, 1205 Lu melanoma cells; type: cell-based, human; settings: 72 hours treatment, read-out: Melanoma cell killing efficacy (IC50 values) 1205 Lu (Melanoma cells)
Description: as §1, §2

[3] = test system: UACC 903 melanoma cell line; assay: Western blot of signaling pathways (PI3K/AKT, STAT3, MAPK; pERK1/2); type: cell-based, human; settings: active 3-5 μmol/L, inactive 30-50 μmol/L, 24 hours
Excerpt: (§3) Cell lysates were harvested and processed as described in refs [14, 29, 31, 34]. […] Protein lysates were collected for Western blotting analysis. Blots were probed with antibodies according to each supplier's recommendations: antibodies to IGF-1R, total AKT, phosphor AKT (Ser473), total PRAS40, phospho-PRAS40 (Thr246), total ERK1/2, phospho-ERK1/2 (Thr202/Tyr 204), total CDK2, phospho-CDK2 (Thr160), p62, LC3B, total STAT, phospho-STAT3 (Tyr705), caspase 3 and cleaved PARP from Cell Signaling Technology (Danvers, MA); cyclin D1, α-enolase and secondary antibodies conjugated with horseradish peroxidase from Santa Cruz Biotechnology (Santa Cruz, CA). Immunoblots were developed using the enhanced chemiluminescence (ECL) detection system (Thermo Fisher Scientific, Rockford, IL).

UACC 903 melanoma cells [4] = assay: Tumorigenicity assessment, xenografted melanoma tumors; type: in vivo; settings: 80 mg/kg oral daily; UACC 903 xenograft, athymic nu/nu mice
Description: (§4) 1 × 10^6 UACC 903 cells in 0.2 mL of DMEM supplemented with 10% FBS were subcutaneously injected above both left and right rib cages of 4–6 week old female athymic nu/nu mice. Six to eight days later, mice were randomly sorted into vehicle control 10% PEG (Poly ethylene glycol) and experimental compound 4a or leelamine groups, followed by daily oral administration of 80 mg/kg body weight. Volume of developing tumors in mm^3 was measured on alternate days using calipers along with assessment of body weights.

[5] = Body weight and sub-chronic toxicity assessment (blood biomarkers) in tumor-bearing mice; type: in vivo; settings: 80 mg/kg oral daily; for body weights of mice: 24 days of treatment
Description: as §4
At the end of tumorigenicity assessment, blood was collected from each euthanized animal in a serum separator tube with lithium heparin (BD Microtainer), following cardiac puncture and analyzed for levels of ALT (Alanine aminotransferase), AST (Aspartate aminotransferase), ALKP (Alkaline phosphatase), ALB (Albumin), GLB (Globulin), TPR (Total Protein), TBIL (Total bilirubin), BUN (Blood urea nitrogen), GLU (Glucose), CK (Creatine kinase), CAL (Calcium).

melanoma cells = assay: Autophagic flux: Western blot of p62 and LC3B; type: cell-based, human; settings: Western blotting, 24 hours
Excerpt: as §3

UACC 903 cells = assay: Endocytosis: Alexa Fluor 488 transferrin uptake; type: cell-based, human; settings: UACC 903, 2 hours treatment
Description: The endocytotic capacity of the cells was measured as described in Kuzu et al. 2014 [14]. Briefly, UACC 903 cells were seeded into chamber slides and treated with the particular agents for 2 hours. Next, Alexa Flor 488 tagged transferrin protein was added at a final concentration of 5 μg/mL and incubated for 30 minutes. Cells were then fixed on the slide with 4% paraformaldehyde and analyzed by fluorescence microscopy as described previously. Measurement of compounds effects on lysosomotropism was assessed through the appearance of cellular vacuolization of UACC 903 cells growing at 70 to 80% confluency on 100 mm culture dishes compared to controls. For some experimental conditions cells were co-treated with 10 nmol/L of BafA1 for 3 hours. Light microscopic images were used to assess cellular vacuolization.

[6] = Pharmacokinetics of leelamine in the serum of mice; type: in vivo; settings: 80 mg/kg oral, Swiss Webster mice
Description: Leelamine was extracted from serum as reported previously. Swiss Webster mice were treated orally with 80 mg/kg body weight of leelamine, animals were euthanized and blood drawn by cardiac puncture at various time periods over 36 hours. Samples were kept at room temperature for 30 minutes followed by serum separation by centrifugation for 5 minutes at 5,000 rpm. Next, 20 μL of the collected serum was added to 80 μL of acetonitrile along with 5 μL of propranolol (RS)-1-(1-methylethylamino)-3-(1-naphthyloxy)propan-2-ol), which served as an internal standard (transition of m/z 259.9 to 116.0). Solution was vortexed for 30 seconds and then centrifuged at 10,000 rpm for 10 minutes. Supernatant was transferred to the auto sampler vials and subject to liquid chromatography-mass spectrometry using LC-MS/MS 2010 EV system (Shimadzu, Tokyo, Japan).

[7] = Dose escalation for oral administration of leelamine; type: in vivo; settings: 80 mg/kg body weight (QOD) over 14 days, Swiss Webster mice
Description: To determine the effective oral dosage of leelamine, a dose escalation study was conducted in 4–6 week old Swiss Webster mice. […] Animals were weighed daily to ascertain potential toxic effects leading to changes in body weight. At the end of treatment, blood was collected from each sacrificed animal in a serum separator tube with lithium heparin (BD Microtainer) following cardiac puncture and levels of serum biomarkers of major organ toxicity were measured. In addition, vital organs including liver, spleen, kidney, intestine, lung and heart from control and experimental animals were collected on day 14, formalin fixed, paraffin-embedded, H&E stained and analyzed microscopically for changes in cellular morphology or tissue architecture.

Compound | IC50 [1] | IC50 (UACC 903 melanoma cells [2]; Homo sapiens, UACC-903, 72 h) | IC50 (1205 Lu melanoma cells; Homo sapiens, 1205Lu, 72 h) | effect on PI3K/AKT, STAT3 and MAPK signaling pathways [3] | other results
CC(C)C1=CC2=CCC3[C@](C)(CCC[C@@]3(C)C(N)=O)C2CC1 (stereo partly drawn) [3a, (1R, 4aR)-7-isopropyl-1,4a-dimethyl-1,2,3,4,4a,4b,5,6,10,10a-decahydrophenanthrene-1-carboxamide] | > 100 µM | 70.1 ± 1.8 µM | 81 ± 2.1 µM | – | –
CNC(=O)[C@]1(C)CCC[C@]2(C)C3CCC(C(C)C)=CC3=CCC21 (stereo partly drawn) [3b, (1R, 4aR)-N, 1,4a-trimethyl-7-(propan-2-yl)-1,2,3,4,4a, 4b, 5,6, 10, 10a-decahydrophenanthrene-1-carboxamide] | > 100 µM | > 100 µM | > 100 µM | – | –
CCN(CC)C(=O)[C@]1(C)CCC[C@]2(C)C3CCC(C(C)C)=CC3=CCC21 (stereo partly drawn) [3c, (1R, 4aR)-N, N-diethyl-1,4a-dimethyl-7-(propan-2-yl)-1,2,3,4,4a, 4b, 5,6, 10, 10a-decahydrophenanthrene-1-carboxamide] | > 100 µM | > 100 µM | > 100 µM | – | –
CC(C)C1=CC2=CCC3[C@](C)(CN)CCC[C@]3(C)C2CC1 (stereo partly drawn) [4a, [(1R, 4aR)-1,4a-dimethyl-7-(propan-2-yl)-1,2,3,4,4a, 4b, 5,6,10,10a-decahydrophenanthren-1-yl] methanamine] | 8.33 ± 0.4 µM | 2.1 µM | 2.9 µM | inhibited | reduction of tumor volume compared with vehicle control (UACC 903 melanoma cells [4]): 51%; body weights of mice [5]: No significant differences; blood parameters (ALT, AST, ALKP, ALB, GLB, TPR, TBIL, BUN, GLU, CK and CAL) indicative of organ-related sub-chronic toxicity ([5]; end of study): fell in the normal range; autophagic flux (p62 and LC3B proteins) (melanoma cells): dose dependently induced accumulation of p62 and LC3B proteins
CNC[C@]1(C)CCC[C@]2(C)C3CCC(C(C)C)=CC3=CCC12 (stereo partly drawn) [4b, {[(1R, 4aR)-1,4a-dimethyl-7-(propan-2-yl)-1,2,3,4,4a, 4b, 5,6,10,10a-decahydrophenanthren-1-yl]methyl}(methyl) amine] | 9.33 ± 1.2 µM | 2.3 µM | 2.3 µM | – | –
CCN(CC)C[C@]1(C)CCC[C@]2(C)C3CCC(C(C)C)=CC3=CCC12 (stereo partly drawn) [4c, N-ethyl-N-(((1R, 4aR)-7-isopropyl-1,4a-dimethyl-1,2,3,4,4a, 4b,5,6,10,10a-decahydrophenanthren-1-yl)methyl) ethanamine] | > 100 µM | 24.4 ± 1.4 µM | 24.3 ± 2.5 µM | – | –
CC(C)c1ccc2c(c1)CCC1[C@](C)(CNC(=O)C(F)(F)F)CCC[C@]21C (stereo partly drawn) [5a, N-{[(1R, 4aS)-1,4a-dimethyl-7-(propan-2-yl)-1,2,3,4,4a, 9, 10, 10a-octahydrophenanthren-1-yl]methyl}-2,2,2-trifluoroacetamide] | 5.17 ± 0.1 µM | 1.2 µM | 2 µM | inhibited | autophagic flux (p62 and LC3B proteins) (melanoma cells): dose dependently induced accumulation of p62 and LC3B proteins
CC(C)c1ccc2c(c1)CCC1[C@](C)(CNC(=O)C(Br)(Br)Br)CCC[C@]21C (stereo partly drawn) [5b, N-{[(1R, 4aS)-1,4a-dimethyl-7-(propan-2-yl)-1,2,3,4,4a, 9, 10, 10a-octahydrophenanthren-1-yl]methyl}-2,2,2-tribromoacetamide] | 4.1 ± 0.2 µM | 1 µM | 1.8 µM | – | –
CC(=O)NC[C@]1(C)CCC[C@]2(C)c3ccc(C(C)C)cc3CCC12 (stereo partly drawn) [5c, N-{[(1R, 4aS)-1,4a-dimethyl-7-(propan-2-yl)-1,2,3,4,4a, 9, 10, 10a-octahydrophenanthren-1-yl]methyl} acetamide] | > 100 µM | 89.4 ± 3.3 µM | > 100 µM | did not affect these pathways | –
CC(C)c1ccc2c(c1)CCC1[C@](C)(CNC(=O)c3ccccc3)CCC[C@]21C (stereo partly drawn) [5d, N-(((1R, 4aS)-7-isopropyl-1,4a-dimethyl-1,2,3,4,4a, 9, 10, 10a-octahydrophenanthren-1-yl)methyl) benzamide] | > 100 µM | > 100 µM | > 100 µM | – | –
CC(C)c1ccc2c(c1)CCC1[C@](C)(CNCc3ccccc3)CCC[C@]21C (stereo partly drawn) [5e, N-benzyl-1-((1R, 4aS)-7-isopropyl-1,4a-dimethyl-1,2,3,4,4a, 9, 10, 10a-octahydrophenanthren-1-yl) methanamine] | 3.13 ± 0.4 µM | 6 µM | 7 µM | – | IC50 (1205 Lu melanoma cells): 7.05 ± 0.7 µM
CC(C)c1ccc2c(c1)CCC1[C@](C)(CNC(c3ccccc3)(c3ccccc3)c3ccccc3)CCC[C@]21C (stereo partly drawn) [5f, {[(1R, 4aS)-1,4a-dimetyl-7-(propan-2-yl)-1,2,3,4,4a, 9, 10, 10a-octahydrophenanthren-1-yl]methyl} (triphenylmethyl) amine] | > 100 µM | > 100 µM | > 100 µM | – | –
CC(C)C1=CC2=CC[C@@H]3[C@](C)(CCC[C@@]3(C)C(=O)O)[C@H]2CC1 [Abietic acid, reference compound] | > 100 µM | > 100 µM | > 100 µM | did not affect these pathways | cellular endocytosis (Alexa Fluor conjugated transferrin uptake) (UACC 903 cells): did not occur
CC(C)c1ccc2c(c1)CCC1C(C)(CN)CCCC21C (stereo not shown) [Leelamine] | 8.91 ± 0.6 µM | 1.35 ± 0.1 µM | 1.93 ± 0.2 µM | inhibited | body weights of mice [5]: No significant differences; time present in the serum ([6]; followed over 36 hours): ≤ 24 h; Tmax ([6]; mouse, serum, LC-MS/MS, read-out: time of maximum concentration in serum): 6 h; weight loss on repeated oral dosing [7]: did not cause any weight loss; autophagic flux (p62 and LC3B proteins) (melanoma cells): dose dependently induced accumulation of p62 and LC3B proteins
[(1R, 4aR)-1,4a-dimethyl-7-(propan-2-yl)-1, 2, 3, 4, 4a, 4b, 5, 6, 7,10a-decahydrophenanthren-1-yl] methanol [2b] | – | – | – | – | IC50 (UACC 903 melanoma cells [2]): 52.6 ± 1.4 µM; IC50 (1205 Lu melanoma cells): 60.3 ± 1.6 µM
